Tests used:
[1] = target: T1, Adenosine deaminase (Bos taurus) (UniProt P56658)
T1 sequence (whole entry): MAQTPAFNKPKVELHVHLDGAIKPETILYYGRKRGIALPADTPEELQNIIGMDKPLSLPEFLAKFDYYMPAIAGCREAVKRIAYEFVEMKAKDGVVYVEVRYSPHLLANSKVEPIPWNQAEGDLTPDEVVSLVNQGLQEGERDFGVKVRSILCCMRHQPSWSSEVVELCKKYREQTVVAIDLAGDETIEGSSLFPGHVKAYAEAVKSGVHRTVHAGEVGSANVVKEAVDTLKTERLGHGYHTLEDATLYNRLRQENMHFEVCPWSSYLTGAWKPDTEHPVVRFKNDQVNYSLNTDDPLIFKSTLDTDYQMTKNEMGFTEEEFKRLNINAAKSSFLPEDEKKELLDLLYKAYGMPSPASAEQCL

[2] = Upper limit of relative enzyme affinity of compound to the substrate.
[3] = target: T2, Adenosine deaminase (Bos taurus, UniProt P56658); test: Ability to inhibit calf intestinal adenosine deaminase (ADA); No data
T2 sequence (P56658 whole entry): T1 sequence (whole entry)

[4] = target: T2, Adenosine deaminase; test: Ability to inhibit calf intestinal adenosine deaminase (ADA).

An REA [1] of 2.8e+06 was found for `OC[C@H]1O[C@@H](n2cnc3c2N=CNC[C@H]3O)C[C@@H]1O` in this work.

A Km/Ki [2] of 2.1 and a Ki [3] of 12 µM were found for `CCCCCCC(C(C)O)n1cnc2c1N=CNC2CO` (stereo unspecified) in this work.

A Km/Ki [2] of 36 and a Ki [4] of 680 nM were found for `CCCCCCC(C(C)O)n1cnc2cncnc21` (stereo unspecified) in this work.

A Ki [3] of 0.0013 µM was found for `CCCCCC[C@@H]([C@@H](C)O)n1cnc2c(N)ncnc21` [EHNA] in this work.
